From ChEMBL document CHEMBL1141545, “Synthesis and biological evaluation of 3,5-diaminoindazoles as cyclin-dependent kinase inhibitors” (Bioorg Med Chem Lett, 2008)

Tests used:
[1] = molecular target: Cyclin-dependent kinase 2 (Homo sapiens, UniProt P24941); assay: Inhibition of CDK2
[2] = molecular target: Cyclin-dependent kinase 4 (Homo sapiens, UniProt P11802); assay: Inhibition of CDK4
[3] = molecular target: Cyclin-dependent kinase 1 (Homo sapiens, UniProt P06493); assay: Inhibition of CDK1
Cyclin-dependent kinase 1, sequence (P06493 whole entry): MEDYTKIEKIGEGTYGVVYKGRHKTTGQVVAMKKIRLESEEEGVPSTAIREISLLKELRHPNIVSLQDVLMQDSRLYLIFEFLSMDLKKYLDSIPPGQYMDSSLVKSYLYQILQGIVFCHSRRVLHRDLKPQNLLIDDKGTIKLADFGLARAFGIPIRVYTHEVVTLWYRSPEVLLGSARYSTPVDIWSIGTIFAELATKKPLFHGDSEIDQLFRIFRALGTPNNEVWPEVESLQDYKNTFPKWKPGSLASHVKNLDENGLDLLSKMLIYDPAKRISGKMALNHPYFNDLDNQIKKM

[4] = Selectivity for CDK2 over CDK1
EJ = assay: Antiproliferative activity against human EJ cells after 48 hrs; assay type: functional, cell-based
A549 = assay: Antiproliferative activity against human A549 cells after 48 hrs; assay type: functional, cell-based; settings: A549, 48 h
SW-620 = assay: Antiproliferative activity against human SW620 cells after 48 hrs; assay type: functional, cell-based; settings: SW-620, 48 h
HCT-116 = assay: cells; settings: Homo sapiens, HCT-116, 48 h
Description: Antiproliferative activity against human HCT116 cells after 48 hrs

Cyclin-dependent kinase 4, sequence (P11802 whole entry): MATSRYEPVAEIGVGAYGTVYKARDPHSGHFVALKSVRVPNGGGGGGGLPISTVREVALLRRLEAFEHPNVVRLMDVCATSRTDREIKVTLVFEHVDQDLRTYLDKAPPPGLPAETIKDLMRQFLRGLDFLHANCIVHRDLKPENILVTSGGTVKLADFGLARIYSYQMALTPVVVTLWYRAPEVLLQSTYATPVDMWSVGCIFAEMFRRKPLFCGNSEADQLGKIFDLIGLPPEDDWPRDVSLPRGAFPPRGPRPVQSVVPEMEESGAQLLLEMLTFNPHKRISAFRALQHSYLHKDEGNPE

SMILES	IC50 [1] [nM]	IC50 [2] [nM]	IC50 [3] [nM]	Ratio IC50 [4]	IC50 (EJ) [nM]	IC50 (A549) [nM]	IC50 (SW-620) [nM]	IC50 (HCT-116) [nM]
O=C(Cc1ccc(F)cc1)Nc1n[nH]c2ccc(N3CCCS3(=O)=O)cc12	20	3000	50	< 10	–	–	–	–
O=C(Cc1ccccc1)Nc1n[nH]c2ccc([N+](=O)[O-])cc12	2000	–	–	–	–	–	–	–
CCCCN(CCCC)c1ccc2[nH]nc(NC(=O)Cc3ccccc3)c2c1	> 100000	–	–	–	–	–	–	–
Nc1ccc(CC(=O)Nc2n[nH]c3ccc(N4CCCS4(=O)=O)cc23)cc1	16	2200	60	< 10	–	–	–	–
O=C(Cc1cccc(Cl)c1)Nc1n[nH]c2ccc(N3CCCS3(=O)=O)cc12	10	1050	34	< 10	–	–	–	–
O=C(Cc1ccccc1)Nc1n[nH]c2ccc(N3C(=O)CNC3=O)cc12	2000	–	–	–	–	–	–	–
O=C(Cc1ccc(-c2ccccc2)cc1)Nc1n[nH]c2ccc(N3CCCS3(=O)=O)cc12	14	2200	42	–	52	55	40	180
Cc1cccc(CC(=O)Nc2n[nH]c3ccc(N4CCCS4(=O)=O)cc23)c1	10	4000	50	< 10	–	–	–	–
CS(=O)(=O)c1ccc(CC(=O)Nc2n[nH]c3ccc(N4CCCS4(=O)=O)cc23)cc1	22	1400	200	–	35000	–	–	48000
CCN(CC)c1ccc(CC(=O)Nc2n[nH]c3ccc(N4CCCS4(=O)=O)cc23)cc1	40	> 1000	60	–	55	50	–	220
O=C(Cc1ccc(-c2ccncc2)cc1)Nc1n[nH]c2ccc(N3CCCS3(=O)=O)cc12	30	1330	60	< 10	1050	1400	–	2500
CCNc1ccc2[nH]nc(NC(=O)Cc3ccccc3)c2c1	500	–	–	–	–	–	–	–
CCCN(CCC)c1ccc2[nH]nc(NC(=O)Cc3ccccc3)c2c1	1800	–	–	–	–	–	–	–
O=C(Cc1ccc2ccccc2c1)Nc1n[nH]c2ccc(N3CCCS3(=O)=O)cc12	9	1600	40	< 10	120	90	80	310
CCN(CC)c1ccc2[nH]nc(NC(=O)Cc3ccccc3)c2c1	200	–	–	–	–	–	–	–
O=C(Cc1cccc(F)c1)Nc1n[nH]c2ccc(N3CCCS3(=O)=O)cc12	10	710	30	< 10	–	–	–	–
CN(C)c1ccc(CC(=O)Nc2n[nH]c3ccc(N4CCCS4(=O)=O)cc23)cc1	10	210	28	< 10	–	350	–	830
O=C(Cc1ccccc1)Nc1n[nH]c2ccc(N3CCCCC3=O)cc12	7100	–	–	–	–	–	–	–
O=C(Cc1ccc(Cl)cc1)Nc1n[nH]c2ccc(N3CCCS3(=O)=O)cc12	10	2000	12	–	930	1500	930	1230
O=C(Cc1ccccc1Cl)Nc1n[nH]c2ccc(N3CCCS3(=O)=O)cc12	24	890	80	< 10	–	–	–	–
O=C(Cc1ccc(O)cc1)Nc1n[nH]c2ccc(N3CCCS3(=O)=O)cc12	9	1750	28	–	5200	–	3830	6530
O=C(Cc1ccccc1)Nc1n[nH]c2ccc(N3CCCS3(=O)=O)cc12	36	3700	–	–	3600	–	2200	4600
CSc1ccc(CC(=O)Nc2n[nH]c3ccc(N4CCCS4(=O)=O)cc23)cc1	10	1300	40	–	280	2470	150	820
O=C(Cc1cccc(Br)c1)Nc1n[nH]c2ccc(N3CCCS3(=O)=O)cc12	7	1800	47	< 10	–	–	–	–
O=C(Cc1ccc(N2CCCCC2)cc1)Nc1n[nH]c2ccc(N3CCCS3(=O)=O)cc12	–	750	150	–	980	1100	–	1200
O=C(Cc1ccc(Br)cc1)Nc1n[nH]c2ccc(N3CCCS3(=O)=O)cc12	7	2000	22	< 10	1570	3870	2000	1400
O=C(Cc1cccc2ccccc12)Nc1n[nH]c2ccc(N3CCCS3(=O)=O)cc12	20	3000	67	< 10	1300	1400	930	2300
Cc1ccc(CC(=O)Nc2n[nH]c3ccc(N4CCCS4(=O)=O)cc23)cc1	7	1800	40	< 10	1670	2570	1560	1770
O=C(Cc1ccccc1)Nc1n[nH]c2ccc(N3CCCC3=O)cc12	170	–	–	–	–	–	–	–
